Where two headings read alike, the source gives them in different places.
Legend:
granuloma = assay: Anti-proliferative (anti-granulomatous) activity, cotton pellet granuloma; format: in vivo, rat (Wistar, male); conditions: rat, cotton pellet impregnated with product, 6 days
Description: The experimental local anti-inflammatory activity of the compounds presented was estimated in rats by their anti-proliferative (anti-granulomatous) action, and for certain of these, by their anti-arthritic activity and their antiexudative activity.
The anti-proliferative (anti-granulomatous) activity has been brought into evidence by means of a test, the principle of which is as follows.
The introduction of a foreign body into an organism produces a set of inflammatory reactions which results, in the chromic stage, in the formation of a defence granuloma around the foreign body. The proliferation of this granuloma is eliminated or attenuated by anti-inflammatory agents.
The technique employed is very similar to that described by Winter and Porter (J. Am. Pharm. Ass. 46/9. 515) 1957 with rats.
Homogeneous groups of 6 male adult rats of the Wistar Strain were used, distributed at random and having weights comprised between 180 and 200 grams.
The implants or pellets were prepared from rolls of dental cotton; the weight of the pellets was between 35 and 40 mg.
The products to be tested were dissolved in dimethylsulphoxide (DMSO) and the solutions obtained, deposited on the pellets at a volume of 0.2 ml per pellet. The DMSO was then evaporated under high vacuum at ambient temperature, the complete elimination of the solvent being checked by weighing the pellets. "Reference" pellets, soaked with the solvent alone, were treated in the same manner.
Immediately before their introduction, the pellets were soaked with an antibiotic solution (0.1 ml. of a solution of penicillin G and streptomycin containing 200,000 of penicillin G and 0.1 gram of streptomycin sulphate per cc.).
Each animal received two pellets in the sub-cutaneous dorsal tissue on each side of the spinal column, at the costo-lumbar angle, under light anaesthesia with ether. The day of the operation and for three days after, the animals received by sub-cutaneous injection, 0.1 ml. of the antibiotic solution in the caudal region.
Six days after the introduction, the animals were killed by inhalation of chloroform and the granulomae were extracted and weighed, (fresh weight), and then the initial weights of the cotton pellets were subtracted from the total weight.
Certain non-sulphured steroids causing a large increase in protein catabolism which can influence the formation of the granuloma independently of their anti-inflammatory action, the weights of the granulomae were expressed as a percentage of the body weight (technique proposed by G. Dipasquale and A. Meli: J. Pharm. Pharmacol. (1965), 17,367-382) and the anti-proliferative effect of the various compounds as a percentage inhibition with respect to the reference granulomae. The DE50 were calculated by transferring the results on to semi-logarithmic paper.

thymus = format: in vivo, rat (Wistar, young male)
Protocol: The thymolytic effects have been examined by means of a test, the principle of which is as follows:
The repeated administration of a gluco-corticoid having a systemic activity causes an involution of the defence system of the organism, of which two organs belong to the reticulo-endothelial system, the spleen and the thymus, this latter being the most sensitive to this action, especially with young animals. The thymic involution is estimated by weighing.
The various products were injected daily by the oral or the sub-cutaneous route for four days, to young male rats of Wistar-strain, the initial weight of which was between 45 and 55 grams, distributed at random by groups of ten.
The products under study were administered at a volume of 0.2 ml. per animal for both methods, in suspension in:
Carboxy-methyl-cellulose at 5 % for sub-cutaneous injection;
Gum arabic at 5 % for the oral route.
The animals of the reference groups received the same volume of the corresponding vehicle.
Ninety-six hours after the first administration, the animals were killed, the thymus glands being taken and weighed immediately.
(§1) For each animal, the weight of the thymus has been brought to 100 grams of body weight. The thymolytic activity of the products under study was then expressed as a percentage of regression of the thymus with respect to the animals of the reference group and the ED50 of each product tested was estimated by transferring the percentage inhibition obtained for each dose on semi-logarithmic paper.

granuloma / thymus = assay: Ratio of the local anti-inflammatory activity to the thymolytic activity; format: in vivo, rat (Wistar); conditions: for ED50 anti-proliferative activity / ED50 thymolytic activity (sub-cutaneous route): thymolytic activity determined by sub-cutaneous route; for ED50 anti-proliferative activity / ED50 thymolytic activity (oral route): thymolytic activity determined by the oral route
Protocol: The DE50 were calculated by transferring the results on to semi-logarithmic paper.
as §1
The ratio is indicated in Tables VII, VIII and IX which follow: […]

[1] = cited from earlier work; for Adreno-corticoid activity / Diuretic activity: U.S. Pat. No. 2,814,632
[2] = oral, total dose administered during four days per rat of about 50 g
[3] = sub-cutaneous, total dose administered during four days per rat of about 50 g

Row | Structure (SMILES) | ED50 anti-proliferative activity (granuloma) | ED50 thymolytic activity, sub-cutaneous route (thymus; rat, in vivo, 5760 min) [mg] | ED50 thymolytic activity, oral route (thymus; rat, in vivo, po, 5760 min) [mg] | ED50 anti-proliferative activity / ED50 thymolytic activity (sub-cutaneous route) (granuloma / thymus) | ED50 anti-proliferative activity / ED50 thymolytic activity (oral route) (granuloma / thymus) | also measured
1 | C[C@]12CCC(=O)C=C1CC[C@@H]1[C@@H]2[C@@H](O)C[C@@]2(C)[C@H]1CC[C@]2(O)C(=O)CSC(=O)c1ccc(F)cc1 [JO 1026, Dihydroxy-11β, 17α thiol-21 dioxo-3,20 pregnene-4-21 p. fluoro-benzoate] | 0.4 mg/pellet | > 40 | > 40 | < 0.01 | < 0.01 | –
2 | CCC(=O)SCC(=O)[C@@]1(O)CC[C@H]2[C@@H]3CCC4=CC(=O)C=C[C@]4(C)[C@H]3[C@@H](O)C[C@@]21C [21-thio propionate of prednisolone] | – | – | – | – | – | Adreno-corticoid activity [1]: possessing an adreno-corticoid activity; Diuretic activity [1]: considerable diuretic activity
3 | CC(C)(C)C(=O)SCC(=O)[C@@]1(O)CC[C@H]2[C@@H]3CCC4=CC(=O)C=C[C@]4(C)[C@H]3[C@@H](O)C[C@@]21C [JO 1007, Dihydroxy-11β, 17αThiol 21 Dioxo-3,20 Pregnadiene-1,4 -21 Pivalate] | 0,44 mg/pellet | 30.4 | 9.6 | 0.014 | 0.046 | –
4 | C[C@]12C=CC(=O)C=C1CC[C@@H]1[C@@H]2[C@@H](O)C[C@@]2(C)[C@H]1CC[C@]2(O)C(=O)CSC(=O)c1ccc(F)cc1 [JO 1014, Thiol-21 dioxo-3,20 pregnadiene-1,4-21 p. fluorobenzoate] | 0.5 mg/pellet | > 40 | 40 | 0.0125 | 0,012 | –
5 | C[C@]12C=CC(=O)C=C1CC[C@@H]1[C@@H]2[C@@H](O)C[C@@]2(C)[C@H]1CC[C@]2(O)C(=O)CO [Prednisolone (base), Prednisolone, reference compound] | 4 mg/pellet | – | – | 5 | 12.5 | ED50 thymolytic activity, oral route (thymus; [2]): 0.34 mg; ED50 thymolytic activity, sub-cutaneous route (thymus; [3]): 0.84 mg
6 | CC(=O)SCC(=O)[C@@]1(O)[C@H](C)C[C@H]2[C@@H]3CCC4=CC(=O)C=C[C@]4(C)[C@@]3(F)[C@@H](O)C[C@@]21C [21-thio-acetate of dexamethasone] | – | – | – | – | – | Anti-inflammatory action ([1]; French Pat. No. 1187 M): anti-inflammatory product with a local action and a systemic action
7 | CC(=O)OCC(=O)[C@@]1(O)CC[C@H]2[C@@H]3CCC4=CC(=O)C=C[C@]4(C)[C@H]3[C@@H](O)C[C@@]21C [Prednisolone (acetate), reference compound] | 2 mg/pellet | – | – | – | – | ED50 thymolytic activity, oral route (thymus; [2]): 0.64 mg; ED50 thymolytic activity, sub-cutaneous route (thymus; [3]): 0.23 mg
8 | CC(=O)SCC(=O)[C@@]1(O)CC[C@H]2[C@@H]3CCC4=CC(=O)C=C[C@]4(C)[C@H]3[C@@H](O)C[C@@]21C [21-thio-acetate of prednisolone] | – | – | – | – | – | Adreno-corticoid activity [1]: possessing an adreno-corticoid activity; Diuretic activity [1]: considerable diuretic activity
9 | CCCCCCC(=O)SCC(=O)[C@@]1(O)[C@H](C)C[C@H]2[C@@H]3CCC4=CC(=O)C=C[C@]4(C)[C@@]3(F)[C@@H](O)C[C@@]21C [JO 1010, Dihydroxy611β, 17α thiol-21 dioxo-3,20 fluoro-9α methyl-16α pregnadiene-1,4-21 heptanoate] | 0,5 mg/pellet | 0.4 | – | 1.25 | – | –
10 | CC(=O)OCC(=O)[C@@]1(O)[C@H](C)C[C@H]2[C@@H]3CCC4=CC(=O)C=C[C@]4(C)[C@@]3(F)[C@@H](O)C[C@@]21C [Dexamethasone (acetate), Dexamethasone acetate, reference compound] | 0.4 mg/pellet | 0.009 | 0.01 | 40 | 40 | –
11 | CC(=O)SCC(=O)[C@@]1(O)CC[C@H]2[C@@H]3CCC4=CC(=O)CC[C@]4(C)[C@H]3[C@@H](O)C[C@@]21C [21-thio-acetate of hydrocortisone] | – | – | – | – | – | Biological activity ([1]; J. Org. Chem. 26,1233, 1961): free of all interesting biological activity
12 | CCCCCCC(=O)SCC(=O)[C@@]1(O)CC[C@H]2[C@@H]3CCC4=CC(=O)C=C[C@]4(C)[C@H]3[C@@H](O)C[C@@]21C [JO 1009, Dihydroxy-11β, 17αthiol-21 dioxo-3,20 pregnadiene-1,4-21 heptanoate] | 0.5 mg/pellet | 8 | – | 0.0625 | – | –
13 | C[C@]12CCC(=O)C=C1CC[C@@H]1[C@@H]2[C@@H](O)C[C@@]2(C)[C@H]1CC[C@]2(O)C(=O)CO [Hydrocortisone (base), Hydrocortisone, reference compound] | 10 mg/pellet | 1.8 | 4 | 5.5 | 2.5 | –
14 | C[C@@H]1C[C@H]2[C@@H]3CCC4=CC(=O)C=C[C@]4(C)[C@@]3(F)[C@@H](O)C[C@]2(C)[C@@]1(O)C(=O)CO [Dexamethasone (base), Dexamethasone, reference compound] | 1 mg/pellet | 10.02 | 0.013 | 50 | 80 | –
15 | C[C@@H]1C[C@H]2[C@@H]3CCC4=CC(=O)C=C[C@]4(C)[C@@]3(F)[C@@H](O)C[C@]2(C)[C@@]1(O)C(=O)CSC(=O)C(C)(C)C [JO 1008, Dihydroxy-11β, 17α thiol-21 dioxo-3,20 fluoro-9α methyl-16α pregnadiene-1,4-21-pivalate] | 1 mg/pellet | 0.8 | – | 1.25 | – | –
16 | C[C@@H]1C[C@H]2[C@@H]3CCC4=CC(=O)C=C[C@]4(C)[C@@]3(F)[C@@H](O)C[C@]2(C)[C@@]1(O)C(=O)CSC(=O)c1ccc(F)cc1 [JO 1013, Dihydroxy-11β, 17α thiol-21 dioxo-3,20 fluoro-9α methyl-16α pregnadiene-1,4-21 p. fluoro benzoate] | 0.5 mg/pellet | 0.8 | – | 0.625 | – | –

Reference: patent publication US4014909A, “Esters of 21-thiol steroids” (priority 1974, dated 1977)
